Laboratory results: US20120245154A1, “SUBSTITUTED AMINOTHIAZINE DERIVATIVE” (SHIONOGI & CO., LTD., priority 2009, published 2012)
Values belong to the compound of their own block, whether it stands above or below them.

Key:
[1] = target: T1, CYP2C19 (Homo sapiens, UniProt P33261); assay: CYP inhibition test (mephenyloin 4′-hydroxylation); type: in vitro ADME; details: pooled human hepatic microsome, 50 μmol/L S-mephenitoin
T1 construct: enzyme, pooled human hepatic microsome 0.2 mg protein/mL; from tissue; host or cells: pooled human hepatic microsomes
T1 sequence (P33261 whole entry): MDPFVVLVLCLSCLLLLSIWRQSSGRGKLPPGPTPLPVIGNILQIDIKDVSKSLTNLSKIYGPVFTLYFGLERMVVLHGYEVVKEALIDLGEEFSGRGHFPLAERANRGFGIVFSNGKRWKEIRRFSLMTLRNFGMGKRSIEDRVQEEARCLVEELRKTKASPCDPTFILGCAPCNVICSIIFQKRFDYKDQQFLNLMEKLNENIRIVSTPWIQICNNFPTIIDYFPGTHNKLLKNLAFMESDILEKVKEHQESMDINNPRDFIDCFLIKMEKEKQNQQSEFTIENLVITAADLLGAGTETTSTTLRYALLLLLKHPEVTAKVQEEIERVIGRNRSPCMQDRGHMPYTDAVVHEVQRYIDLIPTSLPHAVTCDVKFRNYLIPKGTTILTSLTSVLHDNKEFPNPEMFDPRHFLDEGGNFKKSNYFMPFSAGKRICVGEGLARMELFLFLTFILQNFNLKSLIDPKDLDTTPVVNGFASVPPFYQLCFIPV
Method: (§1) Using commercially available pooled human hepatic microsome, and employing, as markers, 7-ethoxyresorufin O-deethylation (CYP1A2), tolbutamide methyl-hydroxylation (CYP2C9), mephenyloin 4′-hydroxylation (CYP2C19), dextromethorphan O-demethylation (CYP2D6), and terfenedine hydroxylation (CYP3A4) as typical substrate metabolism reactions of human main five CYP enzyme forms (CYP1A2, 2C9, 2C19, 2D6, 3A4), an inhibitory degree of each metabolite production amount by a test compound was assessed. […]
(§2) Each five kinds of substrates, human hepatic microsome, or a test drug in 50 mM Hepes buffer as a reaction solution was added to a 96-well plate at the composition as described above, NADPH, as a cofactor was added to initiate metabolism reactions as markers and, after the incubation at 37° C. for 15 minutes, a methanol/acetonitrile=1/1 (v/v) solution was added to stop the reaction. After the centrifugation at 3000 rpm for 15 minutes, resorufin (CYP1A2 metabolite) in the supernatant was quantified by a fluorescent multilabel counter and tributamide hydroxide (CYP2CP metabolite), mephenyloin 4′ hydroxide (CYP2C19 metabolite), […], and terfenadine alcohol (CYP3A4 metabolite) were quantified by LC/MS/MS. […]

[2] = target: T2, CYP2D6 (Homo sapiens, UniProt P10635); assay: CYP inhibition test (dextromethorphan O-demethylation); type: in vitro ADME; details: pooled human hepatic microsome, 5 μmol/L dextromethorphan
T2 construct: enzyme, pooled human hepatic microsome 0.2 mg protein/mL; from tissue; host or cells: pooled human hepatic microsomes
T2 sequence (P10635 whole entry): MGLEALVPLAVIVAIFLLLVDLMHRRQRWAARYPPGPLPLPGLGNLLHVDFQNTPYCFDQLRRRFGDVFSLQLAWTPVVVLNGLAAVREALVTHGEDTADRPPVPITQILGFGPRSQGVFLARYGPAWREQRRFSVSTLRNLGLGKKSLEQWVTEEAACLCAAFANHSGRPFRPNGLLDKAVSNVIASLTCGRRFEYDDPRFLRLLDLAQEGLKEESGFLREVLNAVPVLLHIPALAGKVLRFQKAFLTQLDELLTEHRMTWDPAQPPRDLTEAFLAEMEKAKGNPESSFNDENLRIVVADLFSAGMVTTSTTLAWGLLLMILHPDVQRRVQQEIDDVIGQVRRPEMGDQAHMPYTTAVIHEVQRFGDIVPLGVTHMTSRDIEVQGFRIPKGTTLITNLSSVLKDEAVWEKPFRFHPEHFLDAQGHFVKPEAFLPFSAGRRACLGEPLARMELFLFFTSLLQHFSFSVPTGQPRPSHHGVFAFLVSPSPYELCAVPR
Method: as §1, §2

[3] = target: T3, CYP3A4 (Homo sapiens, UniProt P08684); assay: CYP inhibition test (terfenedine hydroxylation); type: in vitro ADME; set-up: enzyme, pooled human hepatic microsome 0.2 mg protein/mL; from tissue; host or cells: pooled human hepatic microsomes; details: pooled human hepatic microsome, 1 μmol/L terfenedine
T3 sequence (P08684 whole entry): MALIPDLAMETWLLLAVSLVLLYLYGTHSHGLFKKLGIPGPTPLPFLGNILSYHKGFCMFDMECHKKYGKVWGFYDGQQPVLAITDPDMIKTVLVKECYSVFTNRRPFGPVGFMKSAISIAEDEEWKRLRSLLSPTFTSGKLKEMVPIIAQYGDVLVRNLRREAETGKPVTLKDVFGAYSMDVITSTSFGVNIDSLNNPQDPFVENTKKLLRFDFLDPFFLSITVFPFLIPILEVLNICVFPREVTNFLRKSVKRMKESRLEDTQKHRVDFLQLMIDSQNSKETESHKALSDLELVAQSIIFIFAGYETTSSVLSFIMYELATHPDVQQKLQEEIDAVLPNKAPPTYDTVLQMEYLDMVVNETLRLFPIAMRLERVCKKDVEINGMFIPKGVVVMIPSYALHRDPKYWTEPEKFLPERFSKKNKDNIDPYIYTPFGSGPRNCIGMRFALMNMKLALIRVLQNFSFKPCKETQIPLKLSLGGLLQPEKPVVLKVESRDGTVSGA
Method: as §1, §2

[4] = target: T4, CYP1A2 (Homo sapiens, UniProt P05177); assay: CYP inhibition test (7-ethoxyresorufin O-deethylation); type: in vitro ADME; details: pooled human hepatic microsome, 0.5 μmol/L ethoxyresorufin
T4 construct: enzyme, pooled human hepatic microsome 0.2 mg protein/mL; from tissue; host or cells: pooled human hepatic microsomes
T4 sequence (P05177 1-516): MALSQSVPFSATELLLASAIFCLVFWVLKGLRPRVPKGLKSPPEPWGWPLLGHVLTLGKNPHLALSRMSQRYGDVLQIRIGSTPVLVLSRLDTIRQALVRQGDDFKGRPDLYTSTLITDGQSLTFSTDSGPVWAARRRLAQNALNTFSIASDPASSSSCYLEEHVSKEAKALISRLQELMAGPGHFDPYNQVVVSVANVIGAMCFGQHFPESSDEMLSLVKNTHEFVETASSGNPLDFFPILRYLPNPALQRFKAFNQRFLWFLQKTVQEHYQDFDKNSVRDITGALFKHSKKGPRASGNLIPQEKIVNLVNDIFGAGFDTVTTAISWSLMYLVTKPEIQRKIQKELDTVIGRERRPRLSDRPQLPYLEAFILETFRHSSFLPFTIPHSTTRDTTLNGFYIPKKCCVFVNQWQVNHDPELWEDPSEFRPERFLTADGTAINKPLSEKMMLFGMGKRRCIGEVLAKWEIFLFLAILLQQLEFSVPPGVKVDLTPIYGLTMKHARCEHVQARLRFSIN
Method: as §1, §2

[5] = target: T5, CYP2C9 (Homo sapiens, UniProt P11712); assay: CYP inhibition test (tolbutamide methyl-hydroxylation); type: in vitro ADME; details: pooled human hepatic microsome
T5 construct: enzyme, pooled human hepatic microsome 0.2 mg protein/mL; from tissue; host or cells: pooled human hepatic microsomes
T5 sequence (P11712 whole entry): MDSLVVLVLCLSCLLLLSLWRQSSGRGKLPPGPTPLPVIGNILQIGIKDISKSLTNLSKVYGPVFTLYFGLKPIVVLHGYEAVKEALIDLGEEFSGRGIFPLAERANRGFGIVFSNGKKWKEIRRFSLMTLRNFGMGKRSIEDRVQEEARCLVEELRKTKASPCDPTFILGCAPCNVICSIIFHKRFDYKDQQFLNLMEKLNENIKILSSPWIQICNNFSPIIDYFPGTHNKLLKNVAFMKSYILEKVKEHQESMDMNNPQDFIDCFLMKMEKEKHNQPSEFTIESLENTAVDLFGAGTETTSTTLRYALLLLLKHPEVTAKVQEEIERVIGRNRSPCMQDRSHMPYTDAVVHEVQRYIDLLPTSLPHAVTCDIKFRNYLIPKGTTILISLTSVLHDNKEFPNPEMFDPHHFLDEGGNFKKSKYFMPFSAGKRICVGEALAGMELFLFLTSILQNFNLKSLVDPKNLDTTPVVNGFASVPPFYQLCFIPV
Method: as §1, §2

[6] = Solubility test; type: physicochemical; details: JP-I medium, pH 1.2, simulated gastric fluid, kinetic from dmso stock, from turbidity after 4 hours, read-out: solubility assessed by 3 stages
Method: A 2-fold dilution series (12 points) of a 10 mM solution of a test compound in DMSO was added to a medium (JP-I, JP-II) (2%), and solubility was assessed by 3 stages (High; >40 μM, Medium; 3-40 μM, Low; <3 μM) from a turbidity after 4 hours (crystallization information).
The preparation method of solution was as follows: A 10 mM solution of the compound was prepared with DMSO, and 6 μL of the compound solution was added to 594 μL of an artificial intestinal juice (water and 118 mL of 0.2 mol/L NaOH reagent were added to 250 mL of 0.2 mol/L potassium dihydrogen phosphate reagent to reach 1000 mL) with a pH of 6.8. The mixture was left standing for 16 hours at 25° C., and the mixture was vacuum-filtered. The filtrate was two-fold diluted with methanol/water=1/1.

[7] = test system: Neuroblastoma SH-SY5Y cells (SH/APPwt) with human wild-type β-APP excessively expressed; assay: Measurement of β-amyloid (Aβ) production inhibitory effect in cell; type: cell-based; details: 24 hours, Aβ 1-40 in culture supernatant by HTRF, read-out: IC50 (amount needed to inhibit Aβ production by 50%)
Method: Neuroblastoma SH-SY5Y cells (SH/APPwt) with human wild-type β-APP excessively expressed therein were prepared at 8×10^5 cells/mL, and 150 μl portions thereof were inoculated into respective wells of a 96-well culture plate (Falcon). The cells were cultured for 2 hours at 37° C. in a 5% gaseous carbon dioxide incubator. Then, a solution which had been preliminarily prepared by adding and suspending the test compound (DMSO (dimethyl sulfoxide) solution) so as to be 2 μl/50 μl medium was added to the cell sap. Namely, the final DMSO concentration was 1%, and the amount of the cell culture was 200 μl. After the incubation was performed for 24 hours from the addition of the test compound, 100 μl of the culture supernatant was collected from each fraction. The amount of the Aβ in each fraction was measured.
The Aβ amount was measured as follows. 10 μl of a homogeneous time resolved fluorescence (HTRF) measurement reagent (Amyloid-β 1-40 peptide; IBA Molecular Holding, S.A.) and 10 μl of the culture supernatant were put into a 384-well half area microplate (black microplate, Costar) and mixed with each other, and then left standing overnight at 4° C. while the light was shielded. Then, the fluorescence intensity (excitation wavelength: 337 nm, measurement wavelength: 620 nm and 665 nm) was measured with a Wallac 1420 multilabel counter (Perkin Elmer life sciences). […]

[8] = target: T6, Recombinant human BACE1 (Homo sapiens, UniProt P56817); assay: Assay of BACE1 inhibiting activity; type: biochemical; details: Recombinant human BACE1 7.4 nM, substrate peptide 18 nM, pH 5.0, 30° C., 3 hours; read-out: IC50 (50% inhibitory concentration against the enzymatic activity)
T6 construct: purchased R&D Systems
T6 sequence (P56817 46-501): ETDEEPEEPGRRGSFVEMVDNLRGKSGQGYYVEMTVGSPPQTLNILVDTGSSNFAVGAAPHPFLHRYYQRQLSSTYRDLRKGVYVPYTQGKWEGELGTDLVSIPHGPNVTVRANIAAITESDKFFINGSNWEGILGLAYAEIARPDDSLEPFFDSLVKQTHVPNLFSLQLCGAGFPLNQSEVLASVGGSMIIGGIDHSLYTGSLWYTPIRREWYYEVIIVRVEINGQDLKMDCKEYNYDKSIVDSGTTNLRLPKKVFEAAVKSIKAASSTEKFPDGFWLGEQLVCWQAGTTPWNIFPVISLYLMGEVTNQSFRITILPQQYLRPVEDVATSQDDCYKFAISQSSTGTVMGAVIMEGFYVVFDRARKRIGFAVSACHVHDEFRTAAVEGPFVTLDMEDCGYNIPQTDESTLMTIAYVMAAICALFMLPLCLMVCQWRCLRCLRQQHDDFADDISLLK
Method: 48.5 μL of substrate peptide solution (Biotin-XSEVNLDAEFRHDSGC-Eu: X=ε-amino-n-capronic acid, Eu=Europium cryptate) was added to each well of 96-hole half-area plate (a black plate: Corning Incorporated), and after addition of 0.5 μl of the test compound (dissolved in […]) and 1 μl of Recombinant human BACE1(R&D Systems), the reaction mixture was incubated at 30° C. for 3 hours. The substrate peptide was synthesized by reacting Cryptate TBPCOOH mono SMP (CIS bio international) with Biotin-XSEVNLDAEFRHDSGC (Peptide Institute, Inc.). […]
After the incubation for reaction, 50 μl of 8.0 μg/ml Streptavidin-XL665(CIS bio international) dissolved in phosphate buffer (150 mM K2HPO4—KH2PO4, pH 7.0, 0.008% Triton X-100, 0.8 M KF) was added to each well and left stand at 30° C. for an hour. After then, fluorescence intensity was measured (excitation wavelength: 320 nm, measuring wavelength: 620 nm and 665 nm) using Wallac 1420 multilabel counter (Perkin Elmer life sciences). Enzymatic activity was determined from counting ratio of each wavelength (10,000×Count 665/Count 620) and 50% inhibitory concentration against the enzymatic activity was calculated.

[9] = Metabolism stability test; type: in vitro ADME; details: human liver microsomes 0.5 mg protein/mL, 1 mmol/L NADPH, 37° C., 30 minutes
Method: Using a commercially available pooled human hepatic microsomes, a test compound was reacted for a constant time, a remaining rate was calculated by comparing a reacted sample and an unreacted sample, thereby, a degree of metabolism in liver was assessed.
A reaction was performed (oxidative reaction) at 37° C. for 0 minute or 30 minutes in the presence of 1 mmol/L NADPH in 0.2 mL of a buffer (50 mmol/L Tris-HCl pH 7.4, 150 mmol/L potassium chloride, 10 mmol/L magnesium chloride) containing 0.5 mg protein/mL of human liver microsomes. After the reaction, 50 μL of the reaction solution was added to 100 μL of a methanol/acetonitrile=1/1 (v/v), mixed and centrifuged at 3000 rpm for 15 minutes. The test compound in the supernatant was quantified by LC/MS/MS, and a remaining amount of the test compound after the reaction was calculated, letting a compound amount at 0 minute reaction time to be 100%.

[10] = target: T3, CYP3A4; assay: CYP3A4 fluorescent MBI test; type: in vitro ADME; set-up: host or cells: Escherichia coli; details: CYP3A4 expressed in Escherichia coli, substrate 7-BFC
Method: The CYP3A4 fluorescent MBI test is a test of investigating enhancement of CYP3A4 inhibition of a compound by a metabolism reaction, and the test was performed using, as CYP3A4 enzyme expressed in Escherichia coli and employing, as an index, a reaction in which 7-benzyloxytrifluoromethylchmarin (7-BFC) is debenzylated by the CYP3A4 enzyme to produce a metabolite, 7-hydroxytrifluoromethylchmarin (HFC) emitting fluorescent light.
The reaction conditions were as follows: substrate, 5.6 μmol/L 7-BFC; pre-reaction time, 0 or 30 minutes; reaction time, 15 minutes; reaction temperature, 25° C. […]
An enzyme in a K-Pi buffer (pH 7.4) and a test drug solution as a pre-reaction solution were added to a 96-well plate at the composition of the pre-reaction, a part of it was transferred to another 96-well plate so that it was 1/10 diluted by a substrate in a K-Pi buffer, NADPH as a co-factor was added to initiate a reaction as an index (without preincubation) and, after a predetermined time of a reaction, acetonitrile/0.5 mol/L Tris (trishydroxyaminomethane)=4/1 was added to stop the reaction. […] For the plate on which each index reaction had been performed, a fluorescent value of 7-HFC which is a metabolite was measured with a fluorescent plate reader. […]

IC50 [1]: > 21 µM | IC50 [2]: > 21 µM | IC50 [3]: > 21 µM | IC50 [4]: > 21 µM | IC50 [5]: > 21 µM
Compound: COCCNC(=O)C1=C[C@@](C)(c2cc(NC(=O)c3ccc(C#N)cn3)ccc2F)N=C(N)S1 [Compound I-2]

solubility at 4 h [6]: > 40 µM
Compound: C[C@@]1(c2cc(NC(=O)c3ccc(C#N)cn3)ccc2F)C=C(CO)SC(N)=N1 [Compound I-6]

IC50 [7]: 0.002 µM | IC50 [8]: 0.012 µM
Compound: CCC1=C[C@@](C)(c2cc(NC(=O)c3ccc(C#N)cn3)ccc2F)N=C(N)S1 [Compound I-8]

remaining amount of the test compound after the reaction [9]: 96.4%
Compound: COc1cnc(C(=O)Nc2ccc(F)c([C@]3(C)C=C(C(C)(C)O)SC(N)=N3)c2)cn1 [Compound I-19]

Compound: C[C@@]1(c2cc(NC(=O)c3ccc(C#N)cn3)ccc2F)C=C(c2ccccn2)SC(N)=N1 [Compound I-20]
CYP3A4 MBI: difference between IC50 values (pre-reaction time 0 or 30 minutes) [10]: (−) (when the difference is 3 μM or less, this was defined as (−))
